According to PubChem BioAssay AID1963827 (Molecular Pharmacology Branch, DTP, NCI, 2024):

System: 994946-033-R-J1-PDC complex spheroid viability
Assay: Anticancer human tumor 994946-033-R-J1-PDC patient-derived melanoma cell line growth inhibition [POLQ]
Conditions: for IC50: curve of first compound; for viability, T/C: stronger effect = lower value
Description: Multicellular complex tumor spheroid response to Polymerase (POL) inhibitors (novobiocin, ART-558, RP6685) in combination with a variety of drugs and investigational agents in selected tumor cell lines
The POL inhibitors (novobiocin, ART-558, and RP6685) were evaluated both individually and in combination with standard of care and investigational anticancer small molecules within a complex spheroid model of solid tumors. . Complex spheroids include a stromal component modeled by human endothelial cells (HUVEC) and fibroblasts modeled by human mesenchymal stem cells (MSCs). The concentration ranges selected for each drug and investigational agent were based upon clinically achievable concentrations if the clinical Cmax of the agent was known.
Compounds. The drugs and investigational agents: novobiocin (NSC847541), ART-558 (NSC835418), RP-6685 (NSC848927), peposertib (NSC802822), ceralasertib (NSC780249), elimusertib (NSC800525), camonsertib (NSC841442), AZD-1390 (NSC803789), olaparib (NSC753686), talazoparib (NSC767125), rucaparib (NSC756644), sotorasib (NSC818433), MRTX-1133 (NSC836407), SN-38 (NSC673596), topotecan (NSC609699), epotoside (NSC141540), doxorubicin (NSC123127), gemcitabine (NSC613327), 5-fluorouracil (NSC19893), paclitaxel (NSC125973), vemurafenib (NSC761431), MSA-2 (NSC828583), SN-011 (NSC837082), adavosertib (NSC754352), prexasertib (NSC758257), carboplatin (NSC241240) and oxaliplatin (NSC266046), were obtained from the National Cancer Institute (NCI) Developmental Therapeutics Program Chemical Repository (21). The FDA-approved anticancer drug set is available from the Developmental Therapeutics Program at https://dtp.cancer.gov/organization/dscb/obtaining/. […] The stock solutions were prepared in dimethyl sulfoxide (DMSO, Sigma-Aldrich, St. Louis, MO, cat. D2650), except for the platinum compounds which were prepared in saline (Quality Biological, Gaithersburg, MD, cat. 114-055-101), at 800-fold the tested concentration and stored at -70 degrees C prior to their use. All drugs and investigational agents were tested over a range starting from a high concentration at or near the clinical Cmax and decreasing in half-log increments. If the clinical Cmax for an agent had not been determined, the highest concentration tested was 10 microM, except for SN-38, which was tested at a high concentration of 1 microM.
Cell Culture. All cells were maintained in an incubator at 37 degrees C and 5% CO2 with 95% humidity. The PDC lines were cultured according to standard operating procedures established by the NCI PDMR (https://pdmr.cancer.gov). Table 3 of the manuscript, lists the cell lines along with the number of the three cell types plated to form the mct-spheroids and media for tumor cell growth. After thawing, all PDC lines, except 997537-175-T-J1-PDC and 415267-285-R-J2-PDC, were cultured in Matrigel-coated flasks prepared with a working solution of 1X Ham's F-12 nutrient mix, without supplementation (Thermo Fisher Scientific, cat. 11765054), 100 U/mL penicillin-streptomycin (Thermo Fisher Scientific, cat. 15140122), and 2.5% Matrigel (Corning Inc., Corning, NY, cat. 354248) for the first three passages. The two PDC lines 997537-175-T-J1-PDC and 415267-285-R-J2-PDC were cultured on uncoated flasks. The 857933-349-R-J2-PDC line was cultured in 6C/Colon 1B media containing advanced DMEM/F-12 (Thermo Fisher Scientific, cat. 12634028), 10 mM HEPES (Thermo Fisher Scientific, cat. 15630080), 1X GlutaMAX supplement (Thermo Fisher Scientific, cat. 35050061), 0.1 mg/mL primocin (InvivoGen, San Diego, CA, cat. ant-pm-2), 10% defined fetal bovine serum, heat inactivated (HyClone Laboratories Inc., Logan, UT, cat. SH30070.03HI), 50% L-WRN conditioned media (ATCC, cat. CRL-3276), 1.25 mM N-Acetyl-L-cysteine (Sigma-Aldrich, cat. A9165), 10 mM nicotinamide (Sigma-Aldrich, cat. N0636), 1X B-27 supplement (Thermo Fisher Scientific, cat. 17504044), 1X N-2 supplement (Thermo Fisher Scientific, cat. […]
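Further: spheroids exposed to drugs for 7 days.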
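Wherever viability, T/C is given: 100% = DMSO vehicle treated spheroids.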

With `CCc1cc2c(N3CCc4c(cc(Cn5ccnc5)cc4-c4cn(C)nc4C(F)(F)F)C3=O)cc(C)nc2c(OC)n1` + COC1C(OC(N)=O)C(O)C(Oc2ccc3c(O)c(NC(=O)c4ccc(O)c(CC=C(C)C)c4)c(=O)oc3c2C)OC1(C)C as the compound, how does the IC50 (second compound 0.0316 µM) read?
Its IC50 is > 10 µM.

And the IC50 (second compound 0.1 µM)?
The IC50 was > 10 µM.

What about the IC50 (second compound 0.316 µM) of the same compound?
The IC50 was > 10 µM.

What about the IC50 (second compound 1 µM) of the same compound?
Its IC50 is > 10 µM.

And the IC50 (second compound 3.16 µM)?
The IC50 was > 10 µM.

What about the IC50 (second compound 10 µM) of the same compound?
The IC50 was > 10 µM.

And the viability, T/C (second compound 0.0316 µM, first compound 0.0316 µM)?
The viability, T/C was 105%.

What about the viability, T/C (second compound 0.0316 µM, first compound 0.1 µM) of the same compound?
Its viability, T/C is 86.1%.

What about the viability, T/C (second compound 0.0316 µM, first compound 0.316 µM) of the same compound?
Its viability, T/C is 89.6%.

And the viability, T/C (second compound 0.0316 µM, first compound 1 µM)?
Its viability, T/C is 83%.

What about the viability, T/C (second compound 0.0316 µM, first compound 3.16 µM) of the same compound?
The viability, T/C was 73.4%.

What about the viability, T/C (second compound 0.0316 µM, first compound 10 µM) of the same compound?
Its viability, T/C is 64%.

What about the viability, T/C (second compound 0.1 µM, first compound 0.0316 µM) of the same compound?
The viability, T/C was 83.5%.

And the viability, T/C (second compound 0.1 µM, first compound 0.1 µM)?
Its viability, T/C is 71.5%.

What about the viability, T/C (second compound 0.1 µM, first compound 0.316 µM) of the same compound?
The viability, T/C was 75.1%.

And the viability, T/C (second compound 0.1 µM, first compound 1 µM)?
Its viability, T/C is 86.9%.

And the viability, T/C (second compound 0.1 µM, first compound 3.16 µM)?
The viability, T/C was 83.2%.

What about the viability, T/C (second compound 0.1 µM, first compound 10 µM) of the same compound?
Its viability, T/C is 75.1%.

What about the viability, T/C (second compound 0.316 µM, first compound 0.0316 µM) of the same compound?
Its viability, T/C is 111%.

And the viability, T/C (second compound 0.316 µM, first compound 0.1 µM)?
Its viability, T/C is 90.2%.

And the viability, T/C (second compound 0.316 µM, first compound 0.316 µM)?
The viability, T/C was 86.1%.

And the viability, T/C (second compound 0.316 µM, first compound 1 µM)?
The viability, T/C was 51.9%.

What about the viability, T/C (second compound 0.316 µM, first compound 3.16 µM) of the same compound?
Its viability, T/C is 54%.

And the viability, T/C (second compound 0.316 µM, first compound 10 µM)?
The viability, T/C was 70.5%.

And the viability, T/C (second compound 1 µM, first compound 0.0316 µM)?
Its viability, T/C is 100%.

What about the viability, T/C (second compound 1 µM, first compound 0.1 µM) of the same compound?
The viability, T/C was 71.3%.

And the viability, T/C (second compound 1 µM, first compound 0.316 µM)?
The viability, T/C was 86.9%.

What about the viability, T/C (second compound 1 µM, first compound 1 µM) of the same compound?
Its viability, T/C is 82.2%.

What about the viability, T/C (second compound 1 µM, first compound 3.16 µM) of the same compound?
The viability, T/C was 88.9%.

And the viability, T/C (second compound 1 µM, first compound 10 µM)?
Its viability, T/C is 91%.

And the viability, T/C (second compound 3.16 µM, first compound 0.0316 µM)?
Its viability, T/C is 66%.

And the viability, T/C (second compound 3.16 µM, first compound 0.1 µM)?
Its viability, T/C is 100%.

And the viability, T/C (second compound 3.16 µM, first compound 0.316 µM)?
The viability, T/C was 80.8%.

And the viability, T/C (second compound 3.16 µM, first compound 1 µM)?
The viability, T/C was 78.2%.

And the viability, T/C (second compound 3.16 µM, first compound 3.16 µM)?
The viability, T/C was 73.1%.

And the viability, T/C (second compound 3.16 µM, first compound 10 µM)?
Its viability, T/C is 63.8%.

What about the viability, T/C (second compound 10 µM, first compound 0.0316 µM) of the same compound?
The viability, T/C was 68.1%.

What about the viability, T/C (second compound 10 µM, first compound 0.1 µM) of the same compound?
Its viability, T/C is 93.4%.

What about the viability, T/C (second compound 10 µM, first compound 0.316 µM) of the same compound?
Its viability, T/C is 64.6%.

What about the viability, T/C (second compound 10 µM, first compound 1 µM) of the same compound?
Its viability, T/C is 82.2%.

What about the viability, T/C (second compound 10 µM, first compound 3.16 µM) of the same compound?
Its viability, T/C is 51.1%.

What about the viability, T/C (second compound 10 µM, first compound 10 µM) of the same compound?
Its viability, T/C is 69.9%.
